10 compounds from ChEMBL document CHEMBL3585326, “Discovery of potent carbonic anhydrase and acetylcholine esterase inhibitors: novel sulfamoylcarbamates and sulfamides derived from acetophenones” (Bioorg Med Chem, 2015) can be followed below.

Each structure is given as a SMILES string. pIC50, pKi: −log10 of the molar value.

In this experiment the target is Acetylcholinesterase (Homo sapiens, UniProt P22303).
Chain of Acetylcholinesterase (P22303 whole entry): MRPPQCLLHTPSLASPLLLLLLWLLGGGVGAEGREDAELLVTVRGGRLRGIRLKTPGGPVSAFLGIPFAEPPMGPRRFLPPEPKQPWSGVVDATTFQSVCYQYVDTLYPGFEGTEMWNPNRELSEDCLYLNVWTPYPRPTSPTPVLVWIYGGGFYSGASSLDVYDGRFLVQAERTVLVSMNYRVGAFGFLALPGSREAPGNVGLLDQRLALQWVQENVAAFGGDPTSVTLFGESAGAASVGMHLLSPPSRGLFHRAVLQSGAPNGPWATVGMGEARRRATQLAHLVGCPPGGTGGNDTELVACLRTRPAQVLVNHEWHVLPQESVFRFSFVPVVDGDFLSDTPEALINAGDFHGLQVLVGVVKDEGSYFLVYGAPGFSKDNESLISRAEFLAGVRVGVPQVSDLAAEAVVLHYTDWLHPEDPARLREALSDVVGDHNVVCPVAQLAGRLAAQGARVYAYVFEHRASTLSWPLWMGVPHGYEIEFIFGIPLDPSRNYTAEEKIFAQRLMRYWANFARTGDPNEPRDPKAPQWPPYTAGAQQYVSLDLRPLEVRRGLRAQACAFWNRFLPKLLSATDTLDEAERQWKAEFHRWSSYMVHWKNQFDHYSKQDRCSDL
Description: Inhibition of acetylcholinesterase (unknown origin) assessed as AChI hydrolysis using AChI and DTNB as substrate by Ellman's method
Usually pIC50 stands for −log10 of the IC50, conventionally taken in molar units. A word on the pKi: it is the negative decadic logarithm of the Ki, by convention in mol/L. A high value points to a small Ki. The compound `COc1ccccc1C(C)NS(=O)(=O)NC(=O)OCc1ccccc1` (stereo not given) had a pIC50 of 10.57 and a pKi of 11.25.
Consider `COc1ccc(C(C)NS(=O)(=O)NC(=O)OCc2ccccc2)cc1` (stereo not given), for which the pIC50 was 10.57 and the pKi is 11.35.
The matching figures for `COc1ccc(C(C)NS(=O)(=O)NC(=O)OCc2ccccc2)cc1OC` (stereo not given): 10.57 and 11.29.
The matching figures for `COc1ccc(OC)c(C(C)NS(=O)(=O)NC(=O)OCc2ccccc2)c1` (stereo not given): 10.57 and 10.64.
The matching figures for `COc1cccc(OC)c1C(C)NS(=O)(=O)NC(=O)OCc1ccccc1` (stereo not given): 10.57 and 10.98.
Compound `COc1ccccc1C(C)NS(N)(=O)=O` (stereo not given) showed a pIC50 of 10.57 and a pKi of 10.42.
The like results for `COc1ccc(C(C)NS(N)(=O)=O)cc1` (stereo not given) were, in that order, 10.57 and 11.20.
The like results for `COc1ccc(C(C)NS(N)(=O)=O)cc1OC` (stereo not given) were, in that order, 10.57 and 11.31.
The like results for `COc1ccc(OC)c(C(C)NS(N)(=O)=O)c1` (stereo not given) were, in that order, 10.57 and 11.25.
`COc1cccc(OC)c1C(C)NS(N)(=O)=O` (stereo not given) gave a pIC50 of 10.57 and a pKi of 11.09.
